29 compounds from article PMC8286840, “Identifying SARS-CoV-2 antiviral compounds by screening for small molecule inhibitors of Nsp3 papain-like protease” (Biochemical Journal, 2021) can be followed below.

Assay [1] has as its target T1, SARS-CoV-2 PLpro (nsp3 1564–1878) (Severe acute respiratory syndrome coronavirus 2, UniProt P0DTD1). The assay can be described thus: biochemical. Also on record: FRET-quenched peptide (Pro3) cleavage by PLpro, 10 min pre-incubation, slope over 20 min, normalised to no-compound control. The settings on record: low concentration screen, read-out: % of control remaining.

The target in assay [2] is T1, SARS-CoV-2 PLpro (nsp3 1564–1878). The assay can be described thus: biochemical. The settings on record: high concentration screen, read-out: % of control remaining. Also noted: FRET-quenched peptide (Pro3) cleavage by PLpro, 10 min pre-incubation, slope over 20 min, normalised to no-compound control.

Structures can show the parent of a compound that is named as a salt. Where two headings read alike, the source gives them in different places.

As to `CC(C)CN(C[C@@H](O)[C@H](Cc1ccccc1)NC(=O)O[C@H]1CO[C@H]2OCC[C@H]21)S(=O)(=O)c1ccc(N)cc1` [Darunavir], the remaining activity at 1.25 µM in assay [1] (Well no.=7318) was 108%. For the same compound, in assay [2] (Well no.=7318), the remaining activity at 3.75 µM was 108%.
In the case of `COc1cc2ncnc(-n3nc(-c4ccccn4)nc3N)c2cc1OC` [CP-466722], the remaining activity at 1.25 µM in assay [1] (Well no.=5158) amounted to 103%. Also, the remaining activity at 3.75 µM in assay [2] (Well no.=5158) stood at 101%.
For `CC1(C)CC[C@]2(C(=O)O)CC[C@]3(C)C(=CC[C@@H]4[C@@]5(C)CC[C@H](O)C(C)(C)[C@@H]5CC[C@]43C)[C@@H]2C1` [Oleanolic acid], the remaining activity at 1.25 µM in assay [1] (Well no.=3448) turned out to be 96.1%; in assay [1] (Well no.=6443), 95.4%. Besides, the remaining activity at 3.75 µM stood at 91.6% in assay [2] (Well no.=3448) and 96.8% in assay [2] (Well no.=6443).
Turning to `OCCN1CCN(CCCN2c3ccccc3Sc3ccc(Cl)cc32)CC1` [Perphenazine], the remaining activity at 1.25 µM in assay [1] (Well no.=1006) was found to be 98.7%; in assay [1] (Well no.=6319), 104%. The remaining activity at 3.75 µM in assay [2] (Well no.=1006) stood at 99.2%; in assay [2] (Well no.=6319) it was 99.7%.
With `O=C1CCc2ccc(OCCCCN3CCN(c4cccc(Cl)c4Cl)CC3)cc2N1` [Aripiprazole], the remaining activity at 1.25 µM in assay [1] (Well no.=1844) is 93.9%; in assay [1] (Well no.=8237), 102%. The results for the remaining activity at 3.75 µM in assay [2] (Well no.=1844) and in assay [2] (Well no.=8237) were 95.9% and 95.5%, respectively.
In the case of `CNC(=O)c1ccc(N2C(=S)N(c3cnc(C#N)c(C(F)(F)F)c3)C(=O)C23CCC3)cc1F` [ARN-509], in assay [1] (Well no.=5169), the remaining activity at 1.25 µM was found to be 105%. In assay [2] (Well no.=5169), the remaining activity at 3.75 µM was found to be 101%.
For `CCOc1ccc(-n2c([C@@H](C)N(Cc3cccnc3)C(=O)Cc3ccc(OC(F)(F)F)cc3)nc3ncccc3c2=O)cc1` [AMG 487], in assay [1] (Well no.=8651), the remaining activity at 1.25 µM is 101%. In assay [2] (Well no.=8651), the remaining activity at 3.75 µM was 97.8%.
As to `NCCC[C@](N)(C(=O)O)C(F)F` (racemic) [DL-alpha-Difluoromethylornithine hydrochloride], the remaining activity at 1.25 µM in assay [1] (Well no.=500) worked out at 103%. Moreover, the remaining activity at 3.75 µM in assay [2] (Well no.=500) amounted to 104%.
On to `CC(C(O)c1ccc(O)cc1)N1CCC(Cc2ccccc2)CC1` (stereo not drawn) [Ifenprodil tartrate], for which the remaining activity at 1.25 µM stood at 103% in assay [1] (Well no.=867) and 102% in assay [1] (Well no.=1685). Also, the remaining activity at 3.75 µM in assay [2] (Well no.=867) was determined as 103%; in assay [2] (Well no.=1685), 104%.
Turning to `CN(C)c1cc(NC(=O)CNC(C)(C)C)c(O)c2c1C[C@H]1C[C@H]3[C@H](N(C)C)C(O)=C(C(N)=O)C(=O)[C@@]3(O)C(O)=C1C2=O` [Tigecycline], the remaining activity at 1.25 µM in assay [1] (Well no.=4813) came to 99%. Also, the remaining activity at 3.75 µM in assay [2] (Well no.=4813) was 107%.
Regarding `O=C(O)CC/C=C\C[C@H]1CO[C@@H](c2ccccc2Cl)O[C@H]1c1ccccc1O` [ICI 192605], the remaining activity at 1.25 µM in assay [1] (Well no.=5873) was 98.7%. The remaining activity at 3.75 µM in assay [2] (Well no.=5873) is 100%.
With `Cc1ccc(CN2C(=O)S/C(=C\c3ccc(Cl)cc3)C2=O)cc1` [(5Z)-5-(4-chlorobenzylidene)-3-(4-methylbenzyl)-1,3-thiazolidine-2,4-dione], in assay [1] (Well no.=6027), the remaining activity at 1.25 µM was 94.6%. In assay [2] (Well no.=6027), the remaining activity at 3.75 µM came to 94.7%.
For `O=C(c1ccc(C(=O)N2CCC(N3CCCC3)CC2)c(Nc2ccccc2)c1)N1CCC(N2CCCC2)CC1` [UNC1215], the remaining activity at 1.25 µM in assay [1] (Well no.=5417) worked out at 98.6%. Besides, in assay [2] (Well no.=5417), the remaining activity at 3.75 µM came to 100%.
With `CCCCC[C@H](O)/C=C/[C@@H]1[C@@H](C/C=C\CCCC(=O)O)[C@H](O)C[C@H]1O` (racemic), in assay [1] (Well no.=4479), the remaining activity at 1.25 µM was 101%. The remaining activity at 3.75 µM in assay [2] (Well no.=4479) came to 101%.
Consider `CCc1cc2c(cc1N1CCC(N3CCOCC3)CC1)C(C)(C)c1[nH]c3cc(C#N)ccc3c1C2=O` [CH5424802], for which the remaining activity at 1.25 µM in assay [1] (Well no.=5077) came out at 104%. The remaining activity at 3.75 µM in assay [2] (Well no.=5077) was determined as 104%.
`CCCN(CCC)C1CCc2ccc(O)cc2C1` (racemic): the remaining activity at 1.25 µM in assay [1] (Well no.=662) worked out at 94.1%. In addition, the remaining activity at 3.75 µM in assay [2] (Well no.=662) turned out to be 94.8%.
Take `NC(=O)c1ccc(-c2cc(-c3ccc([N+](=O)[O-])cc3)nc(-c3ccco3)c2)cc1` [KJ Pyr 9]: the remaining activity at 1.25 µM in assay [1] (Well no.=6346) was 99.3%. The remaining activity at 3.75 µM in assay [2] (Well no.=6346) amounted to 101%.
As for `C[C@@H](O)[C@H]1C(=O)N2C(C(=O)O)=C(S[C@@H]3CN[C@H](CNS(N)(=O)=O)C3)[C@H](C)[C@H]12` [Doripenem Hydrate], the remaining activity at 1.25 µM in assay [1] (Well no.=5203) was found to be 103%. In addition, in assay [2] (Well no.=5203), the remaining activity at 3.75 µM was found to be 104%.
`COC(=O)Nc1nc2cc(C(=O)c3ccccc3)ccc2[nH]1` [Mebendazol]: the remaining activity at 1.25 µM in assay [1] (Well no.=1947) was found to be 99%. Further, the remaining activity at 3.75 µM in assay [2] (Well no.=1947) turned out to be 100%.
As to `COc1ccc(N2C(=O)CSC2c2cccc(Br)c2)c(OC)c1` (stereo not drawn) [2-(3-bromophenyl)-3-(2,4-dimethoxyphenyl)-1,3-thiazolidin-4-one], in assay [1] (Well no.=6016), the remaining activity at 1.25 µM worked out at 101%. Moreover, the remaining activity at 3.75 µM in assay [2] (Well no.=6016) is 98.8%.
As to `C[N+]1(C)[C@@H]2CC[C@H]1C[C@@H](OC(=O)C(O)c1ccccc1)C2` (stereo partly drawn) [Homatropine Methylbromide], the remaining activity at 1.25 µM in assay [1] (Well no.=5080) turned out to be 98.2%. Also, in assay [2] (Well no.=5080), the remaining activity at 3.75 µM worked out at 101%.
For the compound `N=C(N)N/N=C/c1c(Cl)cccc1Cl` [Guanabenz acetate], in assay [1] (Well no.=604), the remaining activity at 1.25 µM came out at 96.6%. Moreover, the remaining activity at 3.75 µM in assay [2] (Well no.=604) was 96.2%.
For the compound `COc1c2occc2c(OC)c2c(=O)cc(C)oc12` [Khellin], the remaining activity at 1.25 µM in assay [1] (Well no.=3436) was found to be 92.2%. Moreover, the remaining activity at 3.75 µM in assay [2] (Well no.=3436) is 94.1%.
For the compound `COC(=O)c1ccccc1O` [Methyl salicylate], in assay [1] (Well no.=1716), the remaining activity at 1.25 µM is 102%. In assay [2] (Well no.=1716), the remaining activity at 3.75 µM was found to be 101%.
As for `CCOC(=O)n1ccn(C)c1=S` [Carbimazole], the remaining activity at 1.25 µM in assay [1] (Well no.=5124) stood at 104%. The remaining activity at 3.75 µM in assay [2] (Well no.=5124) is 105%.
As to `O=c1ccccn1CC1(O)CCN(Cc2ccccc2)CC1` [YL0919], the remaining activity at 1.25 µM in assay [1] (Well no.=8009) stood at 101%. The remaining activity at 3.75 µM in assay [2] (Well no.=8009) turned out to be 98.2%.
With `CN1CCc2cc(Cl)c(O)cc2[C@@H](c2ccccc2)C1` [R(+)-SCH-23390 hydrochloride], the remaining activity at 1.25 µM in assay [1] (Well no.=638) came to 96.8%. The remaining activity at 3.75 µM in assay [2] (Well no.=638) is 98%.
Turning to `COc1cc(N)cn[n+]1-c1ccccc1` [Amezinium (methylsulfate)], the remaining activity at 1.25 µM in assay [1] (Well no.=6567) worked out at 106%. Besides, the remaining activity at 3.75 µM in assay [2] (Well no.=6567) came to 104%.
On to `CC(C)CNCc1ccc(-c2ccccc2S(=O)(=O)N2CCCC2)cc1` [PF-04455242 hydrochloride], for which the remaining activity at 1.25 µM in assay [1] (Well no.=5775) was 106%. For the same compound, the remaining activity at 3.75 µM in assay [2] (Well no.=5775) amounted to 107%.
